Experimental findings from patent publication US20100086483A1, “METHOD OF MULTIDETECTOR COMPUTED TOMAGRAPHY” (Gilead Palo Alto, Inc., priority 2008, published 2010) are described below.

For this experiment, the system named is conscious dogs. Put plainly: Effects of regadenoson on HR and CBF before and after metoprolol in conscious dogs. The format is in vivo, dog. Conditions: for Reg-induced tachycardia after metoprolol, % of control: metoprolol 1.5 mg/kg IV; for reduction of Reg-induced coronary vasodilation from control: metoprolol 1.5 mg/kg. The method, then:
Five mongrel dogs were chronically instrumented for measurements of systemic hemodynamics and coronary blood flow (CBF). The effects of regadenoson (1, 2.5 and 5 μg/kg, IV) on HR and CBF were assessed before and after administration of the β1-adrenergic receptor blocker metoprolol (1.5 mg/kg). Values of peak CBF and the duration of the two-fold increase in CBF above baseline were used to assess Reg-induced coronary vasodilation.

As to `COCCc1ccc(OCC(O)CNC(C)C)cc1` (stereo not drawn) [metoprolol], the “Reg-induced tachycardia after metoprolol, % of control” value runs as follows: (Reg 1 μg/kg IV) 55±12 % of control; (Reg 2.5 μg/kg IV) 54±7 % of control; (Reg 5 μg/kg IV) 45±4 % of control. Besides, the “reduction of Reg-induced coronary vasodilation from control” value stood at 11±7% (Reg 1 μg/kg IV), 10±4% (Reg 2.5 μg/kg IV) and 21±2% (Reg 5 μg/kg IV).
